Assay results reported in patent publication US20240180876A1, “COMPOSITION FOR INCREASING RED BLOOD CELLS AND/OR HEMOGLOBIN” (SUNTORY HOLDINGS LIMITED, priority 2021, published 2024).

Columns and labels:
[1] = placebo-controlled, randomized, double-blind, parallel-group human study of red blood cell count, hemoglobin concentration and blood taurine level; assay type: in vivo; details: male and female adults, one capsule with 20 mg L-ergothioneine per day for four weeks, pre-testing to week 4, versus control food group
Procedure: In order to evaluate the influence of supplements containing ergothioneine on the red blood cell count in the blood, blood hemoglobin concentration, and blood taurine level, a placebo-controlled, randomized, double-blind, parallel-group study was conducted on subjects including male and female adults (46 subjects in a test food group; 46 subjects in a control food group; 92 subjects in total). In this study, one capsule containing 20 mg ergothioneine (test food) or one capsule not containing ergothioneine (control food) was fed per day for four weeks. The red blood cell count in the blood, blood hemoglobin concentration, and blood taurine level of each subject were measured for pre-testing before starting the study (before starting ingestion of the test food or control food). After ingestion of the test food or control food for four weeks, the red blood cell count in the blood, blood hemoglobin concentration, and blood taurine level of each subject were measured again (testing on week 4). The red blood cell count in the blood and blood hemoglobin concentration were measured by known methods. […] Specifically, the amount of change in the test food group at the time of testing on week 4 was determined by subtracting the measurements (average) of the test food group at the time of pre-testing from the measurements (average) of the test food group at the time of testing on week 4. Similarly, the amount of change in the control food group at the time of testing on week 4 was determined by subtracting the measurements (average) at the time of pre-testing from the measurements (average) at the time of testing on week 4. […]

[2] = mice orally administered, versus mice not administered; cited from earlier work

In the case of C[N+](C)(C)[C@@H](Cc1c[nH]c(=S)[nH]1)C(=O)[O-] [L-ergothioneine], the “change in blood hemoglobin concentration” value [1] is reported as “significantly increased”, the “change in blood taurine level (CE-TOF-MS)” value [1] is reported as “significantly increased” and the “change in red blood cell count in the blood” value [1] is reported as “significantly increased”. For the same molecule, the peritesticular fat weight [2] was “lower” and the “triglyceride (neutral fat) level in plasma” value [2] was “lower”.
